Laboratory results reported in patent US6896895B2, “Carotenoid esters, carotenoid-enriched feeds, and methods of pigmenting foods and foodstuffs” (DSM IP Assets B.V., priority 2000, dated 2005).

System: egg yolk
Test: Egg yolk colour: reflectance colorimetry and Roche Yolk Colour Fan
Format: in vivo, laying hens (ISA Brown)
Parameters: key to Chroma C*ab Value: CIE L*a*b* chroma C* value; key to Color Fan Value / Color Fan Value Value: visual score on Roche Yolk Colour Fan (RYCF, 1993 version); key to Color Fan Value, Pigmentation: − = off color; + = good color
Details: laying hens; for Color Fan Value % of Controls / Chroma C*ab % of Controls / Color Hue h*ab % of Controls / Chroma C*ab Value / Color Fan Value / Color Hue h*ab Value / Color Fan Value Value / Color Fan Value, Pigmentation: egg yolk; for quality in terms of deposition rate and color intensity (chroma C*a*b*) in the egg yolk: compared to the control
Procedure, shortened: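 ISA Brown laying hens, depleted at least 28 days on low-carotenoid basal diet (<2 mg xanthophylls/kg), fed pigment-supplemented mash ad libitum for three weeks. Pooled yolks of three to six eggs scored with Roche Yolk Colour Fan and measured by reflectance colorimetry (D65, 8°) as CIE L*a*b*, h*, C*; values average four yolk pools.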

[1] = trial H-12/99, 1.0 mg/kg feed, Table 9
[2] = trial H-12/99, 2.0 mg/kg feed, Table 9
[3] = trial H-12/99, 4.0 mg/kg feed, Table 9
[4] = trial H-12/99, 8.0 mg/kg feed, Table 9
[5] = trial H-19/98, 4.0 mg/kg feed, Table 9
[6] = trial H-25/98, 5.0 mg/kg feed, Table 9
[7] = trial H-25/99, 5.0 mg/kg feed, Table 9

## CC1=C(/C=C/C(C)=C/C=C/C(C)=C/C=C/C=C(C)/C=C/C=C(\C)C(=O)OC(C)C)C(C)(C)CCC1 [compound (17), isopropyl beta-apo-8′-carotenoate]
Average over doses, Table 7
  Color Fan Value % of Controls: 105%
Average over doses, Table 9
  Chroma C*ab % of Controls: 98%
  Color Fan Value % of Controls: 105%
  Color Hue h*ab % of Controls: 101%
Trial H-12/99, 1.0 mg/kg feed
  Chroma C*ab % of Controls: 98%
  Chroma C*ab Value: 39
  Color Fan Value: 3
  Color Fan Value % of Controls: 66%
  Color Hue h*ab % of Controls: 101%
  Color Hue h*ab Value: 95
[1]
  Color Fan Value % of Controls: 66%
  Color Fan Value Value: 3
Trial H-12/99, 2.0 mg/kg feed
  Chroma C*ab % of Controls: 100%
  Chroma C*ab Value: 45
  Color Fan Value: 6
  Color Fan Value % of Controls: 104%
  Color Fan Value, Pigmentation: +
  Color Hue h*ab % of Controls: 101%
  Color Hue h*ab Value: 93
[2]
  Color Fan Value % of Controls: 104%
  Color Fan Value Value: 6
  Color Fan Value, Pigmentation: +
Trial H-12/99, 4.0 mg/kg feed
  Chroma C*ab % of Controls: 98%
  Chroma C*ab Value: 51
  Color Fan Value: 6
  Color Fan Value % of Controls: 97%
  Color Fan Value, Pigmentation: +
  Color Hue h*ab % of Controls: 102%
  Color Hue h*ab Value: 90
[3]
  Color Fan Value % of Controls: 97%
  Color Fan Value Value: 6
  Color Fan Value, Pigmentation: +
Trial H-12/99, 8.0 mg/kg feed
  Chroma C*ab % of Controls: 96%
  Chroma C*ab Value: 54
  Color Fan Value: 9
  Color Fan Value % of Controls: 156%
  Color Fan Value, Pigmentation: +
  Color Hue h*ab % of Controls: 100%
  Color Hue h*ab Value: 85
[4]
  Color Fan Value % of Controls: 156%
  Color Fan Value Value: 9
  Color Fan Value, Pigmentation: +
Trial H-19/98, 4.0 mg/kg feed
  Chroma C*ab % of Controls: 97%
  Chroma C*ab Value: 51
  Color Fan Value: 5
  Color Fan Value % of Controls: 79%
  Color Fan Value, Pigmentation: +
  Color Hue h*ab % of Controls: 106%
  Color Hue h*ab Value: 89
[5]
  Color Fan Value % of Controls: 79%
  Color Fan Value Value: 5
  Color Fan Value, Pigmentation: +
Trial H-25/98, 5.0 mg/kg feed
  Chroma C*ab % of Controls: 99%
  Chroma C*ab Value: 52
  Color Hue h*ab % of Controls: 98%
  Color Hue h*ab Value: 86
[6]
  Color Fan Value % of Controls: 130%
  Color Fan Value Value: 9
Trial H-25/99, 5.0 mg/kg feed
  Color Fan Value: 9
  Color Fan Value % of Controls: 130%
  quality in terms of deposition rate and color intensity (chroma C*a*b*) in the egg yolk: comparable quality

## CC(C=CC=C(C)C=CC1=C(C)CCCC1(C)C)=CC=CC=C(C)C=CC=C(C)C(=O)OC(C)(C)C [compound (18), tert. butyl beta-apo-8′-carotenoate]
Average over doses, Table 7
  Color Fan Value % of Controls: 87%
Average over doses, Table 9
  Chroma C*ab % of Controls: 101%
  Color Fan Value % of Controls: 87%
  Color Hue h*ab % of Controls: 85%
Trial H-25/99, 5.0 mg/kg feed
  Chroma C*ab % of Controls: 101%
  Chroma C*ab Value: 52
  Color Fan Value: 7
  Color Fan Value % of Controls: 87%
  Color Fan Value, Pigmentation: +
  Color Hue h*ab % of Controls: 85%
  Color Hue h*ab Value: 74
[7]
  Color Fan Value % of Controls: 87%
  Color Fan Value Value: 7
  Color Fan Value, Pigmentation: +
  quality in terms of deposition rate and color intensity (chroma C*a*b*) in the egg yolk: comparable quality

## CCCC(C)OC(=O)C(C)=CC=CC(C)=CC=CC=C(C)C=CC=C(C)C=CC1=C(C)CCCC1(C)C (stereo not drawn) [compound (19), 2-pentyl beta-apo-8′-carotenoate]
Average over doses, Table 7
  Color Fan Value % of Controls: 87%
Average over doses, Table 9
  Chroma C*ab % of Controls: 113%
  Color Fan Value % of Controls: 87%
  Color Hue h*ab % of Controls: 96%
Trial H-25/99, 5.0 mg/kg feed
  Chroma C*ab % of Controls: 113%
  Chroma C*ab Value: 58
  Color Fan Value: 7
  Color Fan Value % of Controls: 87%
  Color Fan Value, Pigmentation: +
  Color Hue h*ab % of Controls: 96%
  Color Hue h*ab Value: 82
[7]
  Color Fan Value % of Controls: 87%
  Color Fan Value Value: 7
  Color Fan Value, Pigmentation: +
  quality in terms of deposition rate and color intensity (chroma C*a*b*) in the egg yolk: comparable quality
